Laboratory results published in US20020198172A1, “Method of treating motor neuron diseases and demyelinating diseases with citicoline” (priority 1997, published 2002).
Read-outs that look alike come from different tables or passages of the source.

Columns and labels:
[1] = tested on: patient with chronic progressive multiple sclerosis; assay type: in vivo
Text: (§1) Currently, they are diagnosed with chronic-progressive multiple sclerosis. They are afflicted with visual impairments, chronic fatigue, difficulty with speech articulation, tremors in the right and left hands, decreased fine motor movement in the right greater than left hands and decreased motor strength in their lower extremities. They are without weight bearing and is confined to a wheelchair. When asked what their major barriers are as far as functional abilities on a day to day basis, they place fatigue at the top of their impairment list followed by speech difficulties and decreased fine motor movement of their hands. They experienced marked spasticity of their lower extremities with the progression of their neurological condition over the course of several years and eventually resorted to a baclofen pump which was implanted in 1997. […] They receive 85 micrograms of baclofen per day.

[2] = tested on: experimental autoimmune encephalomyelitis; experiment: EAE prevention therapy, daily functional score (Example 2); assay type: in vivo, female Lewis rats; details: score 0 to 4
Procedure: Thirty-two female Lewis rats are divided into four groups of eight each and on day one administered saline, citicoline (500 or 1000 mg/kg, i.p.), or dexamethasone (0.0375 mg/kg), respectively. Dexamethasone acts as a positive control through its ability to suppress immune function. […] Therapy is continued daily. […] Numerical values are averages of the functional scores in each treatment group from Days 14-21 of the study.

[3] = tested on: patients with chronic multiple sclerosis; experiment: Human study in chronic multiple sclerosis, EDSS and SNRS (Example 6); assay type: in vivo; details: 250, 500, or 1,000 mg each patient each day orally or intravenously for six months; eight patients
Procedure: A study of two sets of four patients each with chronic multiple sclerosis is undertaken. Each patient is first examined for normal hepatic, renal, and bone marrow functioning to establish baseline values. Each of the patients in each group is then treated either with citicoline dissolved in sterile preservative-free isotonic saline 10% or oral tablet or capsule. The citicoline is administered orally or intravenously at a dosage of 250, 500, or 1,000 mg each patient each day for six months. Patients are examined on a daily basis. During the treatment period, daily blood counts and twice weekly blood chemistries are performed on each patient. The neurologic function of each of these patients is measured using the expanded Krutzke disability status scale (EDSS), and the Scripps neurologic rating scale (SNRS).

[4] = tested on: patients with bulbar palsy caused by ALS; experiment: Human study in bulbar palsy caused by ALS (Example 7); assay type: in vivo; details: 500-1000 mg citicoline daily
Procedure: Six patients with bulbar palsy caused by ALS are treated with 500-1000 mg each citicoline by injection (monosodium salt dissolved in 10 ml sterile isotonic solution of sodium chloride) or by a solid tablet or soft gel capsule orally and administered daily.

[5] = tested on: patients suffering from ALS; experiment: Double-blind study against placebo in ALS, survival (Example 8); assay type: in vivo, human
Procedure: A double-blind study against placebo is performed as follows: 77 patients suffering from ALS are treated with 500 mg each citicoline by injection (monosodium salt dissolved in 10 ml sterile isotonic solution of sodium chloride) or be a solid tablet or soft gel capsule orally and administered daily, for a period of 12 to 18 months, and 78 patients receive a placebo. The results obtained are analyzed in terms of survival in the study, it being understood that “study drop-outs” (departures from the study) include individuals who actually die, and also individuals whose clinical state necessitates a tracheotomy or transfer to assisted ventilation.

[6] = tested on: patient with chronic progressive multiple sclerosis; experiment: Case, chronic progressive multiple sclerosis, citicoline response (Example 13); assay type: in vivo, human
Text: as §1

patients = experiment: Observed tolerance of citicoline in patients; assay type: in vivo, human; details: doses about 250 mg to about 2000 mg for several weeks to several years
Text: Dosages may be varied over time depending on the severity of symptoms, individual patient tolerance, route of administration and response to treatment. Treatment may be continued indefinitely if needed and if tolerated well.

[7] = citicoline 500 mg/kg i.p. daily from day one
[8] = citicoline 1000 mg/kg i.p. daily from day one
[9] = dexamethasone 0.0375 mg/kg daily from day one
[10] = patient history since around 1986

Compound: NCC(CC(=O)O)c1ccc(Cl)cc1 (stereo not drawn) [baclofen]
- ability to bear weight on lower extremities ([1]; baclofen pump, 85 micrograms per day): lessened their ability to bear weight on their lower extremities
- spasticity in lower extremities ([1]; baclofen pump, continuous infusion into spinal fluid, 85 micrograms per day): reduced the spasticity considerably

Compound: C[N+](C)(C)CCOP(=O)(O)OP(=O)([O-])OC[C@H]1O[C@@H](n2ccc(N)nc2=O)[C@H](O)[C@@H]1O [citicoline, cytidine-5′-diphosphocholine]
- Mean Functional Score Day 14 [2, 7]: 0.43
- Mean Functional Score Day 15 [2, 7]: 0.41
- Mean Functional Score Day 16 [2, 7]: 0.37
- Mean Functional Score Day 17 [2, 7]: 0.38
- Mean Functional Score Day 18 [2, 7]: 0.28
- Mean Functional Score Day 19 [2, 7]: 0.59
- Mean Functional Score Day 20 [2, 7]: 0.68
- Mean Functional Score Day 21 [2, 7]: 0.87
- Mean Functional Score Day 14 [2, 8]: 0.56
- Mean Functional Score Day 15 [2, 8]: 0.78
- Mean Functional Score Day 16 [2, 8]: 0.84
- Mean Functional Score Day 17 [2, 8]: 0.69
- Mean Functional Score Day 18 [2, 8]: 0.62
- Mean Functional Score Day 19 [2, 8]: 0.91
- Mean Functional Score Day 20 [2, 8]: 0.75
- Mean Functional Score Day 21 [2, 8]: 0.84
- toxic side effects [3]: no evidence of any significant toxic side effects
- side effects of this treatment [4]: insignificant
- patients who die (study drop-outs) ([5]; 500 mg citicoline daily for 12 to 18 months, 77 patients, placebo 50%): 20%
- patients who die (study drop-outs) ([5]; subjects with early bulbar involvement or the bulbar form of ALS, 500 mg citicoline daily, placebo 65%): 30%
- adverse side effects ([6]; 500 mg per day every morning, first two weeks): no adverse side effects
- balance and fatigue on the first two days of increased dosage ([6]; 1000 mg per day (500 mg a.m., 500 mg p.m.)): balance had been poor and that their fatigue had increased
- fatigue after dosage increase ([6]; 2000 mg per day (1000 mg a.m., 1000 mg p.m.)): worsening of fatigue in the morning hours for approximately two days
- patient tolerance (patients): tolerate citicoline well

Compound: Cn1cnc([N+](=O)[O-])c1Sc1ncnc2[nH]cnc12 [Imuran]
- effect of earlier treatment on multiple sclerosis ([1]; in vivo): no effect

Compound: C[C@@H]1C[C@H]2[C@@H]3CCC4=CC(=O)C=C[C@]4(C)[C@@]3(F)[C@@H](O)C[C@]2(C)[C@@]1(O)C(=O)CO [Dexamethasone]
- Mean Functional Score Day 14 [2, 9]: 0.14
- Mean Functional Score Day 15 [2, 9]: 0.42
- Mean Functional Score Day 16 [2, 9]: 0.0
- Mean Functional Score Day 17 [2, 9]: 0.14
- Mean Functional Score Day 18 [2, 9]: 0.28
- Mean Functional Score Day 19 [2, 9]: 0.64
- Mean Functional Score Day 20 [2, 9]: 0.57
- Mean Functional Score Day 21 [2, 9]: 0.64

Compound: ACTH: drug often used to treat ALS or MS (SYSMEHFRWGKPVGKKRRPVKVYPNGAEDESAEAFPLEF; Corticotropin; UniProt P01189 138-176, looked up)
- effect of earlier treatment on multiple sclerosis [1, 10]: worked initially

Compound: C[C@]12C=CC(=O)C=C1CC[C@@H]1[C@@H]2C(=O)C[C@@]2(C)[C@H]1CC[C@]2(O)C(=O)CO [Prednisone]
- effect of earlier treatment on multiple sclerosis [1, 10]: worked initially

Compound: Nc1nc(Cl)nc2c1ncn2[C@H]1C[C@H](O)[C@@H](CO)O1 [Cladribine]
- effect of earlier treatment on multiple sclerosis [1, 10]: no effect

Compound: O=P1(N(CCCl)CCCl)NCCCO1 (stereo not drawn) [Cytoxan]
- course of earlier treatment, tolerability [1, 10]: discontinued due to adverse events
